Reference: PMC11904707, “Cyclization of Two Antimicrobial Peptides Improves Their Activity” (ACS Omega, 2025)
≈ marks a conversion by molar mass, not a printed value. Read-outs that look alike come from different tables or passages of the source. Peptide text beside a SMILES is read from it.

Legend:
[1] = test system: Pseudomonas aerginosa (PA231, PA235, PA239, PA249); test: MIC growth inhibition assay, Pseudomonas aeruginosa clinical isolates; format: cell-based; conditions: average of four strains, MHB2, 18 h, 37 °C, A570 growth curves
Method: (§1) Bacterial clinical isolates used for initial screening were anonymously provided by the clinical microbiology laboratory of the University of Pittsburgh Medical Center (UPMC). Bacteria were stored at −80 °C and typically retrieved by obtaining single colonies on agar plates prior to subsequent liquid broth culture. Suspensions of test bacteria were prepared from the log phase of growth by diluting overnight cultures at 1:100 with fresh cation-adjusted Mueller–Hinton Broth (MHB2) and incubating for an additional 3–4 h. Bacteria were spun at 3000 g for 10 min. The pellet was resuspended in Test Condition Media to determine bacterial turbidity using a Den-1B densitometer (Grant Instruments, Beaver Falls, PA) at 0.5 McFarland units corresponding to 10^8 CFU/mL.
(§2) To examine antibacterial activity, we used minor modifications of a standard growth inhibition assay endorsed by the Clinical and Laboratory Standards Institute (CLSI), as previously described.[13] Bacteria were incubated with each of the indicated peptides in MHB2. The bacterial cells were kept in an incubator for 18 h at 37 °C, which is linked to a robotic system that feeds a plate reader every hour with one of 8 × 96-well plates. The 96-well plates are standard flat-bottom microliter plates purchased from Thermo Fisher (Waltham, MA). This setup allows the collection of growth kinetic data at A 570 (absorbance at 570 nm) to examine growth inhibition in real-time (BioTek Instruments, Winooski, VT). […] The assays are typically repeated a second time. If the MIC differs from the first assay, a third experimental trial is performed to confirm the MIC.

[2] = test system: Acinetobacter baumannii (AB78, AB83, AB273, AB275); test: microbe, parasite or virus in culture; format: cell-based
Method: as §1, §2

[3] = test system: Escherichia coli (EC541, EC543, EC546, EC549); test: microbe, parasite or virus in culture; format: cell-based
Method: as §1, §2

[4] = test system: Klebsiella pneumoniae (KP106, KP506, KP542, KP550); test: microbe, parasite or virus in culture; format: cell-based
Method: as §1, §2

[5] = test system: Staphylococcus aureus (SA703, SA722, SA729); test: microbe, parasite or virus in culture; format: cell-based
Method: as §1, §2

[6] = test system: Enterobacter (EA62, EC544, EC547, EA1042); test: MIC growth inhibition assay, Enterobacter clinical isolates; format: cell-based; conditions: average of four strains, MHB2, 18 h, 37 °C, A570 growth curves, read-out: MIC G(−) Entbac
Method: as §1, §2

[7] = test system: G(−) bacteria (five species); test: MIC growth inhibition assay, average over G(−) species; format: cell-based; conditions: average of the average MICs of five G(−) species, ± spread
Method: as §1, §2

[8] = test system: Enterococci (EF500, EF678, EF679, EF787); test: organism not typed; format: cell-based; conditions: read-out: MIC G(+) Entcoc
Method: as §1, §2

[9] = test system: G(+) bacteria (two species); test: MIC growth inhibition assay, average over G(+) species; format: cell-based; conditions: average of the average MICs of two G(+) species, ± spread
Method: as §1, §2

[10] = test system: Staphylococcus hemolyticus 730; test: microbe, parasite or virus in culture; format: cell-based; conditions: for MIC after 1-Hr AB incubation / MIC after 1-Hr NE digestion / MIC after 4-Hr AB incubation / MIC after 4-Hr NE digestion: pH 8; for MIC: then MIC vs Staphylococcus hemolyticus 730
Method: One motivation in designing linear or cyclic AMPs is to prevent proteolytic degradation that can occur with helical peptides. […] Linezolid, a conventional antibiotic was included for comparison.
as §2
The neutrophil elastase was dissolved in 200 mmol/L Tris buffer, pH 8.8, and used at a molar ratio of 1:50 with the peptide in 200 mM ammonium bicarbonate pH 8.0 for 1 or 4 h. The control experiment incubated the peptides alone in 200 mmol/L ammonium bicarbonate for 1 or 4 h. Upon completion of the incubations, the peptides were serially diluted to test MIC. 50% (v/v) MHB2 was added to the plates. MIC was determined as described above.

[11] = test system: human red blood cells (RBCs); conditions: cited from earlier work
Excerpt: Table 2 Antibacterial Activity and Toxicity of CE-03, LE-53, CE-05 and LE-55 Peptides ^a | column: % toxicity / RBC || The secondary structure of AMPs as they encounter membranes may correlate with their toxicity; it has long been thought that helical peptides are more toxic to eukaryotic cells than nonhelical peptides. Our group has found a positive correlation between helicity and toxicity for WLBU2,[18] the E2-peptides,[28] and SPLUNC1-derived antimicrobial peptides.[34] We have also seen the converse, that nonhelical peptides are nontoxic,[18],[26] supporting the positive correlation between helicity and toxicity. Several literature studies have also found a correlation between α-helicity and toxicity to e ...

[12] = EC541, EC543, EC546, EC549, 18 h
[13] = KP106, KP506, KP542, KP550, 18 h
[14] = average of four strains, MHB2, 18 h, 37 °C, A570 growth curves

In the case of `CC(C)[C@@H]1NC(=O)[C@H](Cc2c[nH]c3ccccc23)NC(=O)[C@H](Cc2c[nH]c3ccccc23)NC(=O)[C@H](Cc2c[nH]c3ccccc23)NC(=O)[C@H](Cc2c[nH]c3ccccc23)NC(=O)[C@H](CCCNC(=N)N)NC(=O)[C@H](CCCNC(=N)N)NC(=O)[C@H](CCCNC(=N)N)NC(=O)[C@H](CCCNC(=N)N)NC(=O)[C@H](CCCNC(=N)N)NC(=O)[C@H](CCCNC(=N)N)NC(=O)[C@H](C(C)C)NC1=O` [CE-03] (cyclo(RRRRRRWWWWVV)), the MIC [1] is reported as 7.1 µM (≈ 13.3 µg/mL), the MIC ([2]; AB78, AB83, AB273, AB275, 18 h) is reported as 2.2 µM (≈ 4.14 µg/mL) and the MIC [3, 12] is reported as 1.5 µM (≈ 2.82 µg/mL). It also gave an MIC [4, 13] of 8.2 µM (≈ 15.4 µg/mL), an MIC ([5]; SA703, SA722, SA729, 18 h) of 2.3 µM (≈ 4.32 µg/mL) and an MIC [6] of 3.7 µM (≈ 6.96 µg/mL). The “MIC G(−) average” value [7] was 4.6 ± 1.3 µM (≈ 8.65 µg/mL), the MIC ([8]; 18 h) was 0.9 µM (≈ 1.69 µg/mL) and the “MIC G(+) average” value [9] was 1.6 ± 0.7 µM (≈ 3.01 µg/mL). For the same compound, the “MIC after 1-Hr AB incubation” value [10] was 1.0 ± 0.0 µM (≈ 1.88 µg/mL), the “MIC after 1-Hr NE digestion” value [10] was 1.5 ± 0.7 µM (≈ 2.82 µg/mL) and the “MIC after 4-Hr AB incubation” value [10] was 1.0 ± 0 µM (≈ 1.88 µg/mL). The “MIC after 4-Hr NE digestion” value [10] was 1.0 ± 0 µM (≈ 1.88 µg/mL).

For `CC(C)[C@@H]1NC(=O)[C@H](Cc2c[nH]c3ccccc23)NC(=O)[C@H](Cc2c[nH]c3ccccc23)NC(=O)[C@H](Cc2c[nH]c3ccccc23)NC(=O)[C@H](Cc2c[nH]c3ccccc23)NC(=O)[C@H](CCCNC(=N)N)NC(=O)[C@H](CCCNC(=N)N)NC(=O)[C@H](CCCNC(=N)N)NC(=O)[C@H](CCCNC(=N)N)NC(=O)[C@H](CCCNC(=N)N)NC(=O)[C@H](CCCNC(=N)N)NC(=O)[C@H](CCCNC(=N)N)NC(=O)[C@H](CCCNC(=N)N)NC(=O)[C@H](C(C)C)NC(=O)[C@H](C(C)C)NC(=O)[C@H](C(C)C)NC1=O` [CE-05] (cyclo(RRRRRRRRWWWWVVVV)), the MIC [1] was 6.1 µM (≈ 14.6 µg/mL), the MIC ([2]; AB78, AB83, AB273, AB275, 18 h) was 1.1 µM (≈ 2.63 µg/mL) and the MIC [3, 12] was 2.5 µM (≈ 5.98 µg/mL). It also gave an MIC [4, 13] of 6.7 µM (≈ 16 µg/mL), an MIC ([5]; SA703, SA722, SA729, 18 h) of 1.0 µM (≈ 2.39 µg/mL) and an MIC [6] of 3.2 µM (≈ 7.65 µg/mL). For the same compound, the “MIC G(−) average” value [7] was 3.9 ± 1.1 µM (≈ 9.32 µg/mL), the “MIC after 1-Hr AB incubation” value [10] was 6.0 ± 2.8 µM (≈ 14.3 µg/mL) and the “MIC after 1-Hr NE digestion” value [10] was 3.0 ± 1.4 µM (≈ 7.17 µg/mL). For the same compound, the “MIC after 4-Hr AB incubation” value [10] was 4.0 ± 0 µM (≈ 9.56 µg/mL) and the “MIC after 4-Hr NE digestion” value [10] was 3.0 ± 1.4 µM (≈ 7.17 µg/mL).

In the case of `CC(C)[C@H](NC(=O)[C@@H](NC(=O)[C@H](Cc1c[nH]c2ccccc12)NC(=O)[C@H](Cc1c[nH]c2ccccc12)NC(=O)[C@H](Cc1c[nH]c2ccccc12)NC(=O)[C@H](Cc1c[nH]c2ccccc12)NC(=O)[C@H](CCCNC(=N)N)NC(=O)[C@H](CCCNC(=N)N)NC(=O)[C@H](CCCNC(=N)N)NC(=O)[C@H](CCCNC(=N)N)NC(=O)[C@H](CCCNC(=N)N)NC(=O)[C@@H](N)CCCNC(=N)N)C(C)C)C(=O)O` [LE-53] (H-RRRRRRWWWWVV-OH), the “MIC after 1-Hr AB incubation” value [10] is reported as 2.0 ± 0 µM (≈ 3.8 µg/mL), the “MIC after 1-Hr NE digestion” value [10] is reported as 2.0 ± 0 µM (≈ 3.8 µg/mL) and the “MIC after 4-Hr AB incubation” value [10] is reported as 3.0 ± 1.4 µM (≈ 5.69 µg/mL). The “MIC after 4-Hr NE digestion” value [10] was 1.5 ± 0.7 µM (≈ 2.85 µg/mL) and the “toxicity (in words)” value [11] was “nontoxic”.

With `CC(C)[C@H](NC(=O)[C@@H](NC(=O)[C@@H](NC(=O)[C@@H](NC(=O)[C@H](Cc1c[nH]c2ccccc12)NC(=O)[C@H](Cc1c[nH]c2ccccc12)NC(=O)[C@H](Cc1c[nH]c2ccccc12)NC(=O)[C@H](Cc1c[nH]c2ccccc12)NC(=O)[C@H](CCCNC(=N)N)NC(=O)[C@H](CCCNC(=N)N)NC(=O)[C@H](CCCNC(=N)N)NC(=O)[C@H](CCCNC(=N)N)NC(=O)[C@H](CCCNC(=N)N)NC(=O)[C@H](CCCNC(=N)N)NC(=O)[C@H](CCCNC(=N)N)NC(=O)[C@@H](N)CCCNC(=N)N)C(C)C)C(C)C)C(C)C)C(=O)O` [LE-55] (H-RRRRRRRRWWWWVVVV-OH) the “MIC after 1-Hr AB incubation” value [10] was 16.0 ± 0 µM (≈ 38.5 µg/mL), the “MIC after 1-Hr NE digestion” value [10] was 3.0 ± 1.4 µM (≈ 7.23 µg/mL) and the “MIC after 4-Hr AB incubation” value [10] was 6.0 ± 2.8 µM (≈ 14.5 µg/mL). The “MIC after 4-Hr NE digestion” value [10] was 3.0 ± 1.4 µM (≈ 7.23 µg/mL) and the “toxicity (in words)” value [11] was “nontoxic”.

`CC(=O)NC[C@H]1CN(c2ccc(N3CCOCC3)c(F)c2)C(=O)O1` [linezolid] showed an MIC ([10]; control: peptide alone in 200 mmol/L ammonium bicarbonate pH 8.0, 1 h, read-out: MIC after 1-Hr AB incubation) of over 16 µM, an MIC ([10]; control: peptide alone in 200 mmol/L ammonium bicarbonate pH 8.0, 4 h, read-out: MIC after 4-Hr AB incubation) of over 16 µM and an MIC ([10]; human neutrophil elastase, molar ratio 1:50 with peptide, 200 mM ammonium bicarbonate pH 8.0, 1 h, read-out: MIC after 1-Hr NE digestion) of over 16 µM. For the same compound, the MIC ([10]; human neutrophil elastase, molar ratio 1:50 with peptide, 200 mM ammonium bicarbonate pH 8.0, 4 h, read-out: MIC after 4-Hr NE digestion) was over 16 µM.

For `NC[C@H]1O[C@H](O[C@H]2[C@H](O)[C@@H](O[C@H]3O[C@H](CO)[C@@H](O)[C@H](N)[C@H]3O)[C@H](N)C[C@@H]2N)[C@H](N)C[C@@H]1O` [tobramycin], the MIC ([1]; Pseudomonas) was 32 µM (≈ 15 µg/mL), the MIC ([2]; Acinetobacter baumannii, average of four strains, MHB2, 18 h, 37 °C, A570 growth curves) was 32 µM (≈ 15 µg/mL) and the MIC ([3]; Escherichia coli, average of four strains, MHB2, 18 h, 37 °C, A570 growth curves) was 28 µM (≈ 13.1 µg/mL). It also gave an MIC ([4]; Klebsiella pneumoniae, average of four strains, MHB2, 18 h, 37 °C, A570 growth curves) of 2.1 µM (≈ 0.982 µg/mL), an MIC ([5]; Staphylococcus aureus, average of strains SA703, SA722, SA729, MHB2, 18 h, 37 °C, A570 growth curves) of 13.1 µM (≈ 6.12 µg/mL) and an MIC ([6]; Enterobacter) of 24.5 µM (≈ 11.5 µg/mL). The MIC [7] was 23.7 ± 3.4 µM (≈ 11.1 µg/mL), the MIC [8, 14] was 25 µM (≈ 11.7 µg/mL) and the MIC [9] was 19 ± 1 µM (≈ 8.88 µg/mL).

With colistin the MIC [1] was 8.4 µM, the MIC [2, 14] was 0.5 µM and the MIC [3, 14] was 4.3 µM. It also gave an MIC [4, 14] of 0.7 µM, an MIC ([5]; average of strains SA703, SA722, SA729, MHB2, 18 h, 37 °C, A570 growth curves) of 64.0 µM and an MIC [6] of 12.1 µM. The “MIC G(−) average” value [7] was 5.2 ± 4.3 µM, the MIC [8, 14] was 32.0 µM and the “MIC G(+) average” value [9] was 48.0 ± 23.0 µM.
